The source of these data is patent US9447047B2 (priority 2012, dated 2016).

“Also recorded” adds a separate entry of the source. Like-named read-outs stand apart in the source and are kept apart here. A value given as a limit tells only on which side of the number the result lay.

In data set [1] the test system is Tat-induced HIV transcription in 293T cells. The experiment in a line: Tat-induced HIV transcription in 293T cells transfected with HIV-1 LTR reporter and Tat vectors. Format: cell-based.
The subject of data set [2] is CEM cells. Description: cells. Conditions: Homo sapiens, CCRF-CEM.
In a further data set the test system is EBOV-eGFP. Format: cell-based.
The nature of data set [3]: Control cell viability assays (FIG. 18).
A further data set deals with EBOV VP30. Format: cell-based.
The next data set deals with HIV-1. Description: Inhibition of HIV-1 replication. The format is cell-based.
Another data set concerns EBOV transcription. The format is cell-based.
Data set [4] concerns Tat-driven nuclear localization of PP1α. The format is cell-based.
For data set [5], the system named is CEM cells.
The subject of data set [6] is interaction of Tat with PP1α. The format is cell-based. Conditions: 10 μM, 293T cells.
The target of the next data set is PP1α (Homo sapiens, UniProt P62136). The experiment in a line: Dephosphorylation of generic KT(pT)IRR peptide by recombinant PP1α (malachite green). The format is biochemical.
The test system of a further data set is 293T cells. Description: Global cellular proteome of 293T cells by LC-MS-MS. Conditions: 10 μM for 18 h.
The subject of data set [7] is HIV-1 transcription in CEM-GFP cells. Description: Tat-dependent HIV-1 transcription LTR-GFP reporter assay in CEM-GFP cells infected with Ad-Tat. The format is cell-based. Background: Reporter assays use an easily measured gene product as a stand-in for the process of interest.
For data set [8], the target named is PP1 association with NIPP1, PNUTS and Tat (Homo sapiens, UniProt P62136). Format: cell-based.
The mark [9] stands for this setting: read-out: Toxicity in CEM cells, IC50.
The mark [10] stands for this setting: Human immunodeficiency virus 1; read-out: 50% Inhibition of HIV-1 replication.
Where [11] appears, read: read-out: Toxicity in CEM cells, (IC50, μM).
[12] abbreviates: Human immunodeficiency virus 1, CEM-GFP, 48 h, read-out: Inhibition of HIV-1 Transcription in CEM-GFP cells (IC50, μM).

PP1 association with NIPP1, PNUTS and Tat, sequence (P62136 2-330 limits assumed): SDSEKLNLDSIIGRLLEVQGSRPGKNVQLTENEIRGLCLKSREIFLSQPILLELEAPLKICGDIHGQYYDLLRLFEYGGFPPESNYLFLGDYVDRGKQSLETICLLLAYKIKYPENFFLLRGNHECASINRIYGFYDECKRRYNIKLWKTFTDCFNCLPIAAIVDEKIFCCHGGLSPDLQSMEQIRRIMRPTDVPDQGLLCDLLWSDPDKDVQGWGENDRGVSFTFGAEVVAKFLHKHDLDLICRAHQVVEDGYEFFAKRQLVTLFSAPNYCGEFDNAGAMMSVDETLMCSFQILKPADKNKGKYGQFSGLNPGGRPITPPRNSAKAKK
PP1α, sequence (P62136 whole entry): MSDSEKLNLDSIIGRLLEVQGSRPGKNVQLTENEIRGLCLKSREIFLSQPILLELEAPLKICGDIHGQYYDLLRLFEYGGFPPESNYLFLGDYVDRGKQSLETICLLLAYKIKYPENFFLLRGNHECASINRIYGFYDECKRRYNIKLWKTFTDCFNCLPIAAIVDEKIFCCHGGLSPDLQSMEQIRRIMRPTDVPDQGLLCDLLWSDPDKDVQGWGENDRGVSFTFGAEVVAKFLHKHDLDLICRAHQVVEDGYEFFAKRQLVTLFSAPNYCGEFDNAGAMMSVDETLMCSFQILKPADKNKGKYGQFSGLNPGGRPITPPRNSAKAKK

In the case of `CCNC(=O)NC(=O)C(C)OC(=O)c1c2c(nc3ccccc13)/C(=C/c1ccc(OC)c(OC)c1)CC2` (stereo not drawn) [1E7-03], the “potency in HIV-1 transcription inhibition in 293T cells (comparison)” value in [1] was “equally potent as 1E7”. The IC50 in the data set with CEM cells [2] (setting [9]) was over 20 µM; with HIV-1 (setting [10]) it was 3000 nM. In addition, the “inhibition of EBOV replication” value in the data set on EBOV-eGFP is “completely suppressed”. In addition, the “cell viability” value in data set [3] was “maintains the most viability”. For the same compound, the “VP30 phosphorylation” value in the data set with EBOV VP30 was “increased”. Moreover, the “increase of VP30 phosphorylation” value in the data set on EBOV VP30 is 2.7 fold. In the data set with Vero-E6 cells, the “toxicity” value is recorded as “without any detectable cytotoxicity”. Moreover, the “HIV-1 inhibition” value with HIV-1 (FIG. 18) was “potent HIV-1 inhibitor”. In the data set on EBOV transcription, the “EBOV transcription” value is reported as “inhibits EBOV transcription”. Further, the “translocation of Tat and PP1 into the nucleus” value in data set [4] (fluorescence in nucleus and cytoplasm fractions) is on record as “inhibited”.

Take `CCNC(=O)NC(=O)C(C)OC(=O)c1c2c(nc3ccccc13)/C(=C\c1cccs1)CCC2` (stereo not drawn) [1E7-04]: the IC50 in the data set on CEM cells [2] (setting [9]) was 7 µM. Besides, the “inhibition of EBOV replication” value in the data set on EBOV-eGFP is recorded as “highly potent”. Also, in the data set on Vero-E6 cells, the “toxicity” value is “some toxicity” and the “toxicity (cell monolayer, words)” value is recorded as “visible toxicity”. For the same compound, in the data set on HIV-1 (setting [10]), the IC50 is 3000 nM.

Turning to `CC(OC(=O)c1c2c(nc3ccccc13)/C(=C/c1cccs1)CCC2)C(=O)NC1CC1` (stereo not drawn) [1E7-05], in the data set with EBOV-eGFP, the “inhibition of EBOV replication” value was “highly potent”. Also, in the data set with Vero-E6 cells, the “toxicity” value is recorded as “some toxicity” and the “toxicity (cell monolayer, words)” value is given as “visible toxicity”.

For `COCCNC(=O)OC(=O)c1c2c(nc3ccccc13)/C(=C\c1ccc(O)cc1)CCC2` [1H4], the IC50 in data set [1] (Human immunodeficiency virus 1, HEK-293T, read-out: Inhibition Tat-induced HIV transcription in 293T cells, IC50) was 5 µM; in the data set with CEM cells [2] (setting [11]), over 25 µM; in the data set with CEM cells [2] (setting [9]) it was 30 µM; in [7] (setting [12]) it was 12.5 µM; in data set [7] (Human immunodeficiency virus 1, read-out: Inhibition Tat-induced HIV transcription in CEM cells, IC50) it was 10 µM; with HIV-1 (Human immunodeficiency virus 1, read-out: 50% Inhibition of HIV-1 replication), 10000 nM. The “cytotoxicity / toxicity in T cells” value in the data set with CEM cells [5] is listed as “not cytotoxic”. Besides, the “PP1α-EGFP co-precipitated with Tat” value in [6] is “reduced; also recorded: prevents the interaction”. The “association of Tat with CDK9/cyclin T1” value in [6] was “no effect”. In addition, at PP1α, the “effect on PP1 enzymatic activity (Vmax and Km, KT(pT)IRR peptide)” value is “minimal effect; also recorded: no effect”. In addition, at PP1α (1H4 300 μM, without compound V0=1.4), the “initial velocity V0 of KT(pT)IRR peptide dephosphorylation by PP1α” value came out at 1.3 μM·min^−1. For the same compound, the “effect on cellular proteome” value with 293T cells is “did not significantly change”. Besides, in data set [8], the “Tat association with PP1 (microcystin precipitation)” value is given as “reduced”. The “interaction of PP1 with PNUTS or NIPP1” value in data set [8] is “without any effect; also recorded: no effect”. For the same compound, the “nuclear PP1α-EGFP fluorescence” value in data set [4] (293T cells, nuclear fraction, vs untreated or 1G3) was “significant decrease”. Further, the “nuclear localization of PP1α in the presence of Tat” value in [4] (HeLa cells, 10 μM, 18 hours) was “drastically diminished; also recorded: disrupts”.

Take `CCC(c1nnc(SCC(=O)Nc2ncc(-c3ccc(F)cc3)s2)n1Cc1ccccc1)N(C)C` (stereo not drawn) [T5251659]: the IC50 with CEM cells [2] (setting [11]) turned out to be 6 µM; in [7] (setting [12]), 10 µM.

On to `CCN(CC)S(=O)(=O)c1ccc2c(c1)nc(CCC(=O)N(C)c1ccc(C(F)(F)F)cc1)n2C` [T5326526], for which the IC50 in the data set with CEM cells [2] (setting [11]) is 10 µM; in data set [7] (setting [12]), 15 µM.

`CC(OC(=O)c1ccccc1SCC(=O)Nc1ccc2c(c1)OCO2)C(=O)NCCC1=CCCCC1` (stereo not drawn) [T5369370]: the IC50 turned out to be 15 µM with CEM cells [2] (setting [11]) and 10 µM in [7] (setting [12]).

`O=S(=O)(Nc1ccc(S(=O)(=O)N2CCC(Cc3ccccc3)CC2)cn1)c1ccccc1` [T5481237]: the figures for the IC50 (in the data set with CEM cells [2] (setting [11]); in [7] (setting [12])) were 20 µM and 15 µM, respectively.

For `O=C(CNC(=O)c1ccccc1SCC(=O)NC12CC3CC(CC(C3)C1)C2)Nc1ccc(Cl)cc1` [T5498680], the IC50 (in the data set on CEM cells [2] (setting [11]); in data set [7] (setting [12])) was 5 µM each time.

For `CN(C1CCCCC1)S(=O)(=O)c1ccc(NC(=O)COc2ccccc2-c2ccccc2)cc1` [T5551920], the IC50 (in the data set with CEM cells [2] (setting [11]); in data set [7] (setting [12])) was 15 µM each time.

Regarding `C=C1[C@@H](O)[C@@H]2O[C@]3(CC[C@H](/C=C/[C@@H](C)[C@@H]4CC(C)=C[C@@]5(O[C@H](C[C@@](C)(O)C(=O)O)CC[C@H]5O)O4)O3)CC[C@H]2O[C@@H]1[C@@H](O)C[C@H](C)[C@H]1O[C@@]2(CCCCO2)CC[C@H]1C` [okadaic acid, reference compound], the “VP30 phosphorylation” value with EBOV VP30 was “increased”.
